Results on 18 compounds are retold here after patent EP0548798A1, “Antiviral agent” (SANWA KAGAKU KENKYUSHO CO., LTD., priority 1991, dated 1993).

Data set [1] deals with herpes simplex virus type 1 (Miyama strain). Description: Antiviral activity against HSV-1 in vitro, inhibition of virus-induced CPE in GMK cells (Test Example 1). The conditions noted are these: for log reduction at 10 µg/mL / log reduction at 5 µg/mL: read-out: Antiviral Activity (ΔTCID₅₀(log₁₀)). Type of data set: cell-based, HSV-1 (Miyama strain). How it is done: (§1) Confluent GMK cells (derived from green monkey kidney) in 96-well plates were infected with HSV-1 (Miyama strain) in the presence of various concentrations of test compounds. […] The virus titer (TCID₅₀) was determined from CPE of virus infected culture. Antivirus effects of test compounds were calculated from TCID₅₀ values of test compound treated and control cultures and represented by ΔTCID₅₀(log₁₀). Test compounds were dissolved in MEM medium, ethanol or DMSO to 10 mg/ml, and diluted with MEM medium supplemented with 1% fetal bovineserum.

In data set [2] the test system is GMK cells. Briefly: Cytotoxicity observed microscopically in GMK cells (Test Example 1). In kind it is cell-based, green monkey. How it is done:
as §1
In Table 1, parentheses indicate the cytotoxicity of these compounds. (-) and (±) indicate no cytotoxicity and slight cytotoxicity, respectively.

Data set [3] has as its system HSV-1 (Miyama strain). Briefly: Anti HSV-1 activity in vivo, intraperitoneally infected mice. Set-up: species or system Male BALB/c mice. The conditions noted are these: 322 PFU (10LD₅₀) HSV-1. On the procedure: Male BALB/c mice (5 weeks of age) were intraperitoneally infected with 322 PFU (plaque forming unit, 10LD₅₀) of HSV-1 (Miyama strain). Twenty one days later, survival ratio and mean survival days were evaluated. Test compounds were dispersed in 5% arabic gum/physiological saline, and intraperitoneally administered at 10 mg and 20 mg/kg. Treatment began just after virus inoculation and continued for 5 days.

Data set [4] relates to MT-4 cells. Description: Minimum cytotoxic concentration in MT-4 cells. In kind it is cell-based, human. On the procedure: MT-4 cells (lymphoma derived from human T cell leukemia) in 96-well plate were infected with […] in the presence of various concentrations of test compounds. After incubation, inhibitory effect of HIV-induced CPE by the test compounds and cytotoxicity were microscopically observed. […] TABLE 6 In Table 6, parentheses indicate the minimum cytotoxic concentration of test compounds.

Data set [5] concerns HIV. Description: Inhibition of HIV-induced cytopathogenicity in MT-4 cells. Type of data set: cell-based. On the procedure:
MT-4 cells (lymphoma derived from human T cell leukemia) in 96-well plate were infected with […] in the presence of various concentrations of test compounds. After incubation, inhibitory effect of HIV-induced CPE by the test compounds and cytotoxicity were microscopically observed. […]
Further, since the compounds of the present invention have a chemical structure different from the conventional antiviral substances, it is useful for the prevention or treatment of the infectious diseases caused by viruses resistant to the conventional antiviral substances.
For orientation: Damage to the host cells serves as the signal in cytopathic effect assays.

The test system of data set [6] is GMK cells. Description: Cytotoxicity observed microscopically in GMK cells (Test Example 2). In kind it is cell-based, green monkey. Further details: key: -: no cytotoxicity; ±: slight cytotoxicity; +: cytotoxicity with observable antiviral effect. To be noted: in parentheses. How it is done: (§2) Confluent GMK cells (derived from green monkey kidney) in 96-well plates were infected with HSV-1 (Miyama strain) in the presence of various concentrations of test compounds. After incubation, virus-induced cytopathic effect (CPE), inhibitory effect of CPE by the test compound and cytotoxicity were microscopically observed. The virus titer (TCID₅₀) was determined from CPE of virus infected culture. Ancivirus effects of test compounds were calculated from TCID₅₀ values of test compound treated and control cultures and represented by ΔTCID₅₀(log₁₀). Test compounds were dissolved in MEM medium, ethanol or DMSO to 10 mg/ml, and diluted with MEM medium supplemented with 0.5% fetal bovine serum.
In Table 4, parentheses indicate the cytotoxicity of these compounds. (-), (±) and (+) indicate no cytotoxicity, slight cytotoxicity and cytotoxicity with observable antiviral effect, respectively.

Data set [7] deals with herpes simplex virus type 1 (Miyama strain). Briefly: Antiviral activity against HSV-1 in vitro, inhibition of virus-induced CPE in GMK cells (Test Example 2). In kind it is cell-based, HSV-1 (Miyama strain). The conditions noted are these: 0.5% fetal bovine serum. On the procedure:
as §2

[8] abbreviates: Human alphaherpesvirus 1, 10 µg/ml, GMK cells, 1% fetal bovine serum.
Setting [9] is: 10 µg/ml, GMK cells, in parentheses.
Setting [10] is: 10 µg/ml, GMK cells, 1% fetal bovine serum.
Where [11] appears, read: Human alphaherpesvirus 1, GMK cells, 1% fetal bovine serum.
Setting [12] is: 10 mg/kg intraperitoneally for 5 days.
Where [13] appears, read: 20 mg/kg intraperitoneally for 5 days.
The mark [14] stands for this setting: 5 µg/ml, GMK cells, in parentheses.
[15] abbreviates: Human immunodeficiency virus 1, MT-4 cells, minimum inhibitory concentration, read-out: Anti-HIV Activity (MIC, µg/ml).
[16] abbreviates: Human immunodeficiency virus 1, read-out: Anti-HIV Activity (MIC, µg/ml).

Converted amounts (≈) assume the structure as drawn. Read-outs that look alike come from different tables or passages of the source.

As for `O=C(CN1CCCC1=O)N1CCN(c2ccccc2Cl)CC1` [Compound of Example 1, 1-(2-Chlorophenyl)-4-(2-pyrrolidon-1-yl)acetylpiperazine], in data set [1] (setting [8]), the log reduction at 10 µg/mL stood at 0.17. In data set [2] (setting [9]), the cytotoxicity entry was “-”.

In the case of `CC(=O)Oc1ccccc1C(=O)N1CCN(c2ccccc2Cl)CC1` [Compound of Example 2, 1-(2-Acetoxybenzoyl)-4-(2-chlorophenyl)piperazine], in data set [1] (setting [8]), the log reduction at 10 µg/mL turned out to be 0.5. The cytotoxicity result in data set [2] (setting [9]) is on record as “-”.

In the case of `O=C(c1ccccc1O)N1CCN(c2ccccc2Cl)CC1` [Compound of Example 3, 1-(2-Chlorophenyl)-4-(2-hydroxybenzoyl)piperazine], the log reduction at 10 µg/mL in data set [1] (setting [8]) was determined as 0.83. Further, in data set [2] (setting [9]), the cytotoxicity entry is “-”.

`O=C(CC12CCCN1CCC2)N1CCN(c2ccccc2Cl)CC1` [Compound of Example 4, 1-(1-Azabicyclo[3.3.0]octan-5-yl)acetyl-4-(2-chlorophenyl)piperazine]: the “Antiviral Activity (ΔTCID₅₀(log₁₀))” value in data set [1] (setting [10]) is recorded as 0.66 log₁₀.

For the compound `CCn1cc(C(=O)O)c(=O)c2cc(F)c(N3CCN(c4ccccc4Cl)CC3)cc21` [Compound of Example 5, 7-[4-(2-Chlorophenyl)-1-piperazinyl]-1-ethyl-6-fluoro-1,4-dihydro-4-oxoquinoline-3-carboxylic acid], in data set [1] (setting [11]), the log reduction at 5 µg/mL is over 2.83. The log reduction at 10 µg/mL in data set [1] (setting [8]) was over 2.83. In addition, the “Mean Survival Days” value in data set [3] (setting [12]) amounted to 16.8 ± 1.6 days; in data set [3] (setting [13]) it was 18.7 ± 1.2 days. For the same compound, the “Survival Ratio at 21 days (%)” value was 40% in data set [3] (setting [12]) and 70% in data set [3] (setting [13]). For the same compound, the cytotoxicity entry in data set [2] (setting [14]) was “-”; in data set [2] (setting [9]), “±”.

`CS(=O)(=O)N1CCN(c2ccccc2Cl)CC1` [Compound of Example 6, 1-(2-Chlorophenyl)-4-methylsulfonylpiperazine]: the log reduction at 10 µg/mL in data set [1] (setting [8]) worked out at 0.17. In data set [2] (setting [9]), the cytotoxicity result is “-”.

As to `CCCCCCCCCCCCCCCCCC(=O)N1CCN(c2ccccc2Cl)CC1` [Compound of Example 7, 1-(2-Chlorophenyl)-4-octadecanoylpiperazine], the log reduction at 10 µg/mL in data set [1] (setting [8]) was 0.17. The cytotoxicity entry in data set [2] (setting [9]) is listed as “-”.

Turning to `CCCCC/C=C\C/C=C\CCCCCCCC(=O)N1CCN(c2ccccc2Cl)CC1` [Compound of Example 8, 1-(2-Chlorophenyl)-4-[(Z,Z)-9,12-octadecadienoyl]piperazine], the log reduction at 10 µg/mL in data set [1] (setting [8]) turned out to be 2. Moreover, in data set [3] (setting [12]), the “Mean Survival Days” value came out at 13.7 ± 1.6 days and the “Survival Ratio at 21 days (%)” value came out at 20%. Moreover, in data set [3] (setting [13]), the “Mean Survival Days” value was found to be 16.4 ± 2.0 days and the “Survival Ratio at 21 days (%)” value was 40%. In data set [2] (setting [9]), the cytotoxicity result is reported as “-”. The minimum cytotoxic concentration in data set [4] (MT-4 cells, in parentheses) was over 125 µg/mL. In data set [5] (setting [15]), the MIC amounted to 16 µg/mL (≈ 34.8 µM).

Turning to `CCCCCCCC(=O)N1CCN(c2ccccc2Cl)CC1` [Compound of Example 9, 1-(2-Chlorophenyl)-4-octanoylpiperazine], the log reduction at 5 µg/mL in data set [1] (setting [11]) was 0.83. The log reduction at 10 µg/mL in data set [1] (setting [8]) was over 3. In addition, the results for the “Mean Survival Days” value in data set [3] (setting [12]) and in data set [3] (setting [13]) were 14.2 ± 1.5 days and 18.7 ± 1.8 days, respectively. Moreover, the figures for the “Survival Ratio at 21 days (%)” value in data set [3] (setting [12]) and in data set [3] (setting [13]) were 20% and 60%, respectively. The cytotoxicity entry is on record as “-” in data set [2] (setting [14]) and “±” in data set [2] (setting [9]). For the same compound, the minimum cytotoxic concentration in data set [4] (MT-4 cells, in parentheses) is over 250 µg/mL. Besides, the MIC in data set [5] (setting [15]) was over 125 µg/mL.

As to `C[C@H](CCC(=O)N1CCN(c2ccccc2Cl)CC1)[C@H]1CC[C@H]2[C@@H]3CC[C@@H]4CCCC[C@]4(C)[C@H]3CC[C@]12C` [Compound of Example 10, 1-(2-Chlorophenyl)-4-(5β-cholan-24-oyl)piperazine], in data set [1] (setting [8]), the log reduction at 10 µg/mL is 0.17. Moreover, the cytotoxicity entry in data set [2] (green monkey, 10 µg/ml) is recorded as “-”.

On to `NS(=O)(=O)c1ccc(N2CCN(c3ccccc3Cl)CC2)cc1` [Compound of Example 11, 1-(4-Aminosulfonylphenyl)-4-(2-chlorophenyl)piperazine], for which the log reduction at 10 µg/mL in data set [1] (setting [8]) was found to be 1.5. Also, in data set [2] (setting [9]), the cytotoxicity entry was “-”.

For the compound `CCN1CCN(c2ccccc2Cl)CC1` [Compound of Example 12, 1-(2-Chlorophenyl)-4-ethylpiperazine], the log reduction at 10 µg/mL in data set [1] (Human alphaherpesvirus 1, GMK) amounted to 0.33. For the same compound, the cytotoxicity entry in data set [2] (setting [9]) is given as “-”.

Take `CC(=O)N1CCN(c2ccccc2Cl)CC1` [Compound of Example 13, 1-Acetyl-4-(2-chlorophenyl)piperazine]: the log reduction at 10 µg/mL in data set [1] (setting [8]) was 0. In addition, the cytotoxicity result in data set [2] (setting [9]) is “-”.

For `CC1(C)[C@@H](O)CC[C@]2(C)[C@H]3CC=C4[C@@H]5C[C@@](C)(C(=O)N6CCN(c7ccccc7Cl)CC6)CC[C@]5(C)CC[C@@]4(C)[C@]3(C)CC[C@@H]12` [Compound of Example 15, 1-(3β-Hydroxy-18β-olean-12-en-30-oyl)-4-(2-chlorophenyl)piperazine], the “Antiviral Activity (ΔTCID₅₀(log₁₀))” value in data set [1] (setting [10]) is over 2.00 log₁₀.

For the compound `CCCCCCCC(=O)N1CCN(c2ccccc2C(F)(F)F)CC1` [Compound of Example 16, 1-(2-Trifluoromethylphenyl)-4-octanoylpiperazine], the figures for the cytotoxicity entry in data set [6] (5 µg/ml) and in data set [6] (10 µg/ml) were “-” and “+”, respectively. The “Antiviral Activity (ΔTCID₅₀(log₁₀))” value in data set [7] (5 µg/ml) is on record as 2.16 log₁₀; in data set [7] (10 µg/ml), over 3.00 log₁₀. Further, in data set [4] (MT-4 cells, in parentheses), the minimum cytotoxic concentration is 125 µg/mL. In addition, the MIC in data set [5] (setting [15]) was over 63 µg/mL.

With `COc1cc2c(=O)n(N3CCN(c4ccccc4C(F)(F)F)CC3)ncc2c(OC)c1OC` [Compound of Example 19, 2-[4-(2-Trifluoromethylphenyl)-1-piperazinyl]-5,6,7-trimethoxy-1(2H)-phthalazinone], the results for the cytotoxicity entry in data set [6] (5 µg/ml) and in data set [6] (10 µg/ml) were “-” and “+”, respectively. The “Antiviral Activity (ΔTCID₅₀(log₁₀))” value in data set [7] (5 µg/ml) was 1.17 log₁₀; in data set [7] (10 µg/ml), over 3.00 log₁₀. Moreover, the minimum cytotoxic concentration in data set [4] (MT-4 cells, in parentheses) is over 125 µg/mL. Also, in data set [5] (setting [15]), the MIC came out at 31 µg/mL (≈ 66.7 µM).

With `CC[C@@]12C=C(C(=O)OCCN3CCN(c4ccccc4OC)CC3)n3c4c(c5ccccc53)CCN(CCC1)[C@H]42` [Compound of Example 27, (3α,16α)-Eburunamenine-14-carboxylic acid 2-[4-(2-methoxyphenyl)piperazine-1-yl]ethyl ester], the values for the cytotoxicity entry in data set [6] (5 µg/ml) and in data set [6] (10 µg/ml) were “-” and “±”, respectively. Moreover, the “Antiviral Activity (ΔTCID₅₀(log₁₀))” value in data set [7] (5 µg/ml) came out at 1.00 log₁₀; in data set [7] (10 µg/ml) it was 3.00 log₁₀. In data set [4], the minimum cytotoxic concentration came out at 63 µg/mL. For the same compound, in data set [5] (setting [16]), the MIC is 8 µg/mL (≈ 14.8 µM).

`CC[C@@]12C=C(C(=O)OCCN3CCN(c4ccccc4Cl)CC3)n3c4c(c5ccccc53)CCN(CCC1)[C@H]42` [Compound of Example 28, (3α,16α)-Eburunamenine-14-carboxylic acid 2-[4-(2-chlorophenyl)piperazine-1-yl]ethyl ester]: the cytotoxicity entry in data set [6] (5 µg/ml) is listed as “-”; in data set [6] (10 µg/ml), “+”. In addition, the “Antiviral Activity (ΔTCID₅₀(log₁₀))” value came to 2.00 log₁₀ in data set [7] (5 µg/ml) and 3.00 log₁₀ in data set [7] (10 µg/ml). In data set [4], this compound gave a minimum cytotoxic concentration of 63 µg/mL. In addition, the MIC in data set [5] (setting [16]) came to 4 µg/mL (≈ 7.34 µM).
